For the test, the target named is PBP (Escherichia coli, UniProt P02919). Nature of the test: PBP binding affinity by SPR. Particulars: read-out: steady-state affinity (KD). The source says: Candidate compounds to be tested were labeled with fluorescein (6-carboxyfluoresein N-hydroxysuccinimide ester) under basic conditions to prepare the fluorescent probe. One major concern about the fluorescent probe used in the FA assay is the probe itself; either the fluorophore or the structure modification, may interfere with the binding between the targeted protein and the small molecule. Therefore, the PBP binding affinities of Moe A and the fluorescent probe are compared using SPR.

Molecules are shown by their SMILES.

PBP, sequence (P02919 58-804): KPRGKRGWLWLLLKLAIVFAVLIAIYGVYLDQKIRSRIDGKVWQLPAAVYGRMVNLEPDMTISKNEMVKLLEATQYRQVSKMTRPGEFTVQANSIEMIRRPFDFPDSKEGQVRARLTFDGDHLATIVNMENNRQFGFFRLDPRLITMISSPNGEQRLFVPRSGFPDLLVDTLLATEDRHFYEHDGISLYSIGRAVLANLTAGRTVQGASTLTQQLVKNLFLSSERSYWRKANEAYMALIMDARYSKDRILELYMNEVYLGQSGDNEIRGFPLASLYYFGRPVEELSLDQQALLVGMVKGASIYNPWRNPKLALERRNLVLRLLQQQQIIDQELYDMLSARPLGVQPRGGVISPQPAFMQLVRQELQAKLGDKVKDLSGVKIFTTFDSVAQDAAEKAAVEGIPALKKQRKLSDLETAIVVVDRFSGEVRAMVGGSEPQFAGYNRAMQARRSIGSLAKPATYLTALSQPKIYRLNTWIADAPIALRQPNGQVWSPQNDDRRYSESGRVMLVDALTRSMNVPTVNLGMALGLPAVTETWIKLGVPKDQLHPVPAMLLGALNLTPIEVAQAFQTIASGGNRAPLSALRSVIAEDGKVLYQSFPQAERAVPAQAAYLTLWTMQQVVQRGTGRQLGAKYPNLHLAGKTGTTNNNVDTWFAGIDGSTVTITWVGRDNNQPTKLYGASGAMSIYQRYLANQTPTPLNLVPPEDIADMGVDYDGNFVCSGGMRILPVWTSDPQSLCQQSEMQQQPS

Consider `C=C(C/C=C(\C)CCC=C(C)C)CCC(C)(C)/C=C/CC/C(C)=C\CO[C@H](COP(=O)(O)O[C@H]1OC(C(N)=O)[C@@](C)(O)[C@H](OC(N)=O)C1O[C@@H]1OC(CO[C@@H]2OC(CO)[C@@H](O)[C@H](O)C2O)[C@@H](O[C@@H]2OC(C)[C@@H](O[C@@H]3OC(C(=O)NC4=C(O)CCC4=O)[C@H](O)[C@H](O)C3O)[C@H](O)C2NC(C)=O)[C@H](O)C1NC(C)=O)C(=O)O` (stereo partly shown) [Moe A, Moenomycin A], for which the Kd came out at 440 nM.

These data come from US9890111B2, “Crystal structure of bifunctional transglycosylase PBP1b from E. coli and inhibitors thereof” (Academia Sinica, priority 2008, dated 2018).
